From ChEMBL document CHEMBL1201862, “PubChem BioAssay data set” (2004) come the findings set out here.

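48-hour exposure; five concentrations; linearly interpolated endpoints. At the GI50, growth is halved.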 Activity calls are given as the source filed them. Rule as the data show it: active = GI50 up to about 1.1 µM and inactive = higher. Where only a bound is given, the exact number is not on record here.

Some test systems named below: HL-60; HOP-62; RXF 393; TK-10; CCRF-CEM; SF-268; LOX IMVI; UO-31; HOP-92; T47D; SK-OV-3; 786-0; OVCAR-5; NCI-H23; MDA-MB-435; OVCAR-4; NCI/ADR-RES; SK-MEL-2; MOLT-4; CAKI-1.
Common to all, as to assay: NCI-60 cell line screen, 48 h

Turning to `C=C1C(=O)OC2C1CCC(C)C1C=CC(=O)C12C` (stereo not given), the GI50 in the assay on HL-60 was 1.41 µM (inactive); with HOP-62, 15.5 µM (inactive); in the assay on RXF 393, 1.84 µM (inactive); in the assay with TK-10, 3.05 µM (inactive); in the assay with CCRF-CEM, 1.34 µM (inactive); with SF-268 it was 8.61 µM (inactive). In addition, the GI50 was 1.93 µM (inactive) in the assay with LOX IMVI; 4.75 µM (inactive) with UO-31; 4.1 µM (inactive) in the assay on HOP-92; 2.45 µM (inactive) with T47D; 28 µM (inactive) in the assay with SK-OV-3; 1.85 µM (inactive) in the assay on 786-0. Besides, the GI50 was 4.53 µM (inactive) with OVCAR-5; 3.25 µM (inactive) in the assay on NCI-H23; 1.73 µM (inactive) with MDA-MB-435; 6.76 µM (inactive) in the assay on OVCAR-4; 1.41 µM (inactive) with NCI/ADR-RES; 4.39 µM (inactive) in the assay on SK-MEL-2. The results for the GI50 in the assay with MOLT-4 and in the assay with CAKI-1 were 2.46 µM (inactive) and 2.97 µM (inactive), respectively.

For the compound `CC(C)(C)CNCCO`, the GI50 with HL-60, in the assay on HOP-62, in the assay with RXF 393, in the assay with TK-10, in the assay on CCRF-CEM and with SF-268 was > 100 µM (inactive) in each case. The GI50 in the assay with LOX IMVI, in the assay with UO-31, in the assay with HOP-92, with T47D, with SK-OV-3 and with 786-0 was > 100 µM (inactive) in each case. Also, the GI50 in the assay with OVCAR-5, in the assay on NCI-H23, in the assay on MDA-MB-435, in the assay on OVCAR-4, with NCI/ADR-RES and with SK-MEL-2 was > 100 µM (inactive) in each case. Also, the GI50 with CAKI-1 is > 100 µM (inactive).

Consider `CN1CCCC(OC(=O)c2cc3cc(CCl)ccc3oc2=O)C1` (stereo not given), for which the GI50 in the assay with HL-60 is 2.07 µM (inactive); with HOP-62, 25.8 µM (inactive); in the assay with RXF 393, 23.7 µM (inactive); with TK-10, 18.9 µM (inactive); with CCRF-CEM, 19.1 µM (inactive); in the assay on SF-268, 21.7 µM (inactive). Moreover, the GI50 in the assay with LOX IMVI is 17 µM (inactive); in the assay with UO-31, 15.8 µM (inactive); in the assay on HOP-92, 15.7 µM (inactive); in the assay on T47D, 32.7 µM (inactive); in the assay with SK-OV-3, 35.2 µM (inactive); with 786-0 it was 23.8 µM (inactive). Moreover, the GI50 was 21.6 µM (inactive) with OVCAR-5; 19.3 µM (inactive) in the assay on NCI-H23; 18.9 µM (inactive) in the assay with MDA-MB-435; 20.3 µM (inactive) in the assay on OVCAR-4; 27.9 µM (inactive) in the assay with NCI/ADR-RES; 17.6 µM (inactive) with SK-MEL-2. In addition, the GI50 with MOLT-4 was 29.6 µM (inactive); in the assay with CAKI-1 it was 23.7 µM (inactive).

Consider `CC[C@@]1(O)C(=O)OCc2c1cc1n(c2=O)Cc2c-1nc1ccccc1c2/C=N\NC(=O)C(N)CS` (stereo not given in full), for which the GI50 in the assay on HL-60 was 0.346 µM (active); in the assay on HOP-62, 0.295 µM (active); with RXF 393, 1.8 µM (inactive); in the assay on TK-10 it was > 84.9 µM (inactive); with CCRF-CEM, 0.0446 µM (active); in the assay with SF-268, 0.186 µM (active). The GI50 with LOX IMVI is 0.454 µM (active); in the assay with UO-31 it was 0.989 µM (active); in the assay with HOP-92, 3.13 µM (inactive); in the assay with T47D, 0.1 µM (active); in the assay with SK-OV-3 it was 1.91 µM (inactive); in the assay with 786-0 it was 0.51 µM (active). The GI50 in the assay with OVCAR-5 is 17.3 µM (inactive); with NCI-H23, 0.733 µM (active); with MDA-MB-435, 5.36 µM (inactive); in the assay with OVCAR-4, 53.2 µM (inactive); with NCI/ADR-RES, 1.71 µM (inactive); in the assay with SK-MEL-2 it was 46.3 µM (inactive). The figures for the GI50 in the assay with MOLT-4 and in the assay on CAKI-1 were 0.0794 µM (active) and 0.495 µM (active), respectively.

With `c1ccc(C2C3=C(CCCC3)Nc3nc4cc5ccccc5cc4n32)cc1` (stereo not given), the GI50 in the assay with HL-60, with RXF 393, in the assay on CCRF-CEM, with SF-268, in the assay with LOX IMVI and in the assay on UO-31 was > 100 µM (inactive) throughout. Further, the GI50 in the assay on HOP-92, with T47D, in the assay on SK-OV-3, in the assay with 786-0, in the assay with OVCAR-5 and in the assay on NCI-H23 was > 100 µM (inactive) throughout. In addition, the GI50 in the assay on MDA-MB-435, in the assay with OVCAR-4, in the assay on NCI/ADR-RES, with SK-MEL-2, in the assay with MOLT-4 and in the assay with CAKI-1 was > 100 µM (inactive) in each case.

For `N=c1ccn2c(n1)OC1C(OP(=O)(O)O)C(CO)OC12` (stereo not given), the GI50 is 0.597 µM (active) with HL-60; 1.21 µM (inactive) with HOP-62; > 100 µM (inactive) in the assay on RXF 393; > 100 µM (inactive) with TK-10; 0.0467 µM (active) in the assay with CCRF-CEM; 99.5 µM (inactive) in the assay on SF-268. Besides, the GI50 in the assay on LOX IMVI was 4.52 µM (inactive); with UO-31 it was 7.64 µM (inactive); in the assay on HOP-92, > 100 µM (inactive); in the assay on T47D, > 100 µM (inactive); in the assay with SK-OV-3 it was > 53.6 µM (inactive); with 786-0, 9.77 µM (inactive). In addition, the GI50 is > 100 µM (inactive) in the assay on OVCAR-5; 6.93 µM (inactive) in the assay with NCI-H23; > 100 µM (inactive) in the assay with MDA-MB-435; > 100 µM (inactive) in the assay with OVCAR-4; 22.5 µM (inactive) with NCI/ADR-RES; > 100 µM (inactive) in the assay on SK-MEL-2. In addition, the GI50 in the assay on MOLT-4 was 0.147 µM (active); in the assay with CAKI-1 it was > 24.5 µM (inactive).

Consider `CN(C)CCCOC(=O)C(O)(Cc1ccccc1)C1CC1` (stereo not given), for which the GI50 in the assay with HL-60, in the assay with HOP-62, with RXF 393, in the assay on TK-10, with CCRF-CEM and with SF-268 was > 100 µM (inactive) throughout. For the same compound, the GI50 with LOX IMVI, in the assay with HOP-92, in the assay on T47D, with SK-OV-3, in the assay with 786-0 and in the assay with OVCAR-5 was > 100 µM (inactive) each time. The GI50 in the assay on NCI-H23, with MDA-MB-435, with OVCAR-4, with NCI/ADR-RES, with SK-MEL-2 and in the assay with MOLT-4 was > 100 µM (inactive) throughout. Also, the GI50 in the assay on CAKI-1 is > 100 µM (inactive).

As to `COc1cccc2c1-c1ccccc1[C@H](Nc1ccccc1)[C@@]2(C)O`, the GI50 was 5.42 µM (inactive) with HL-60; 3.85 µM (inactive) in the assay with HOP-62; 4.6 µM (inactive) in the assay with RXF 393; 8.87 µM (inactive) with TK-10; 1.42 µM (inactive) in the assay on CCRF-CEM; 5.71 µM (inactive) in the assay with SF-268. For the same compound, the GI50 with LOX IMVI was 10.1 µM (inactive); with UO-31, 4.93 µM (inactive); in the assay on HOP-92, 11.2 µM (inactive); in the assay on T47D, 8.85 µM (inactive); in the assay with SK-OV-3 it was 4.27 µM (inactive); in the assay on 786-0, 5.45 µM (inactive). Besides, the GI50 in the assay with OVCAR-5 is 11.6 µM (inactive); with NCI-H23, 7.67 µM (inactive); with MDA-MB-435 it was 1.56 µM (inactive); in the assay on OVCAR-4, 10.3 µM (inactive); with NCI/ADR-RES, 3.64 µM (inactive); in the assay on SK-MEL-2 it was 6.12 µM (inactive). The GI50 in the assay with MOLT-4 was 7.28 µM (inactive); in the assay with CAKI-1 it was 4.1 µM (inactive).

Turning to `COc1ccc(-c2cc(-c3cc4cc(Br)ccc4nc3Cl)c(C#N)c(N)n2)cc1`, the GI50 in the assay with HL-60, in the assay on HOP-62, with RXF 393, with CCRF-CEM, in the assay on SF-268 and with LOX IMVI was > 12.5 µM (inactive) throughout. Moreover, the GI50 is > 12.5 µM (inactive) in the assay with UO-31; > 12.5 µM (inactive) in the assay with HOP-92; > 12.5 µM (inactive) in the assay with T47D; > 12.5 µM (inactive) in the assay with SK-OV-3; > 12.5 µM (inactive) with 786-0; 10.7 µM (inactive) in the assay on OVCAR-5. Besides, the GI50 with NCI-H23 is > 12.5 µM (inactive); in the assay with MDA-MB-435 it was > 12.5 µM (inactive); in the assay with OVCAR-4 it was > 12.5 µM (inactive); with NCI/ADR-RES, > 12.5 µM (inactive); in the assay with SK-MEL-2, > 12.5 µM (inactive); with MOLT-4, 9.66 µM (inactive). Moreover, the GI50 with CAKI-1 is > 12.5 µM (inactive).

As to `CC1OC2/C=C\CC(O)C(C)(C)C3CCC(C)C4(O3)O[B-]35OC(C(=O)OC1C2)C1(OC(CCC1C)C(C)(C)C(O)C/C=C\C1CC(OC(=O)C4O3)C(C)O1)O5` (stereo not given), the GI50 in the assay with HL-60 was 1.06 µM (active); with HOP-62, 2.08 µM (inactive); in the assay on RXF 393 it was 1.87 µM (inactive); in the assay on TK-10, 2.97 µM (inactive); in the assay on CCRF-CEM, 0.718 µM (active); in the assay on SF-268 it was 2.02 µM (inactive). Further, the GI50 in the assay on LOX IMVI was 1.97 µM (inactive); in the assay with UO-31, 17.7 µM (inactive); in the assay on HOP-92, 2.94 µM (inactive); in the assay on T47D, 2.81 µM (inactive); with SK-OV-3 it was 4.47 µM (inactive); in the assay with 786-0, 2.83 µM (inactive). The GI50 in the assay on OVCAR-5 was 7.45 µM (inactive); in the assay on NCI-H23, 1.85 µM (inactive); with MDA-MB-435, 2.54 µM (inactive); with OVCAR-4 it was 7.76 µM (inactive); in the assay on NCI/ADR-RES it was 3.2 µM (inactive); in the assay on SK-MEL-2, 1.54 µM (inactive). Besides, the GI50 with MOLT-4 is 1.01 µM (active); in the assay with CAKI-1, 7.6 µM (inactive).
